Measured values as given in ChEMBL document CHEMBL1201862, “PubChem BioAssay data set” (2004).
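Dose response: 5 concentrations. Exposure: 48 h. Format: 96-well plates. Endpoint: linear interpolation; highest concentration if not reached. Abbreviation: GI50, concentration required for 50% inhibition of growth.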 Active and inactive are the calls of the source. Rule as the data show it: active = GI50 up to about 1.1 µM and inactive = higher.

Assays:
Test in all cases: growth of human tumour cells (NCI), 48 h
UO-31 = tested on: UO-31
COLO 205 = tested on: COLO 205
SK-MEL-5 = tested on: SK-MEL-5
LOX IMVI = tested on: LOX IMVI
HCT-116 = tested on: HCT-116
CCRF-CEM = tested on: CCRF-CEM
SF-295 = tested on: SF-295
K562 = tested on: K562
TK-10 = tested on: TK-10
SNB-75 = tested on: SNB-75
ACHN = tested on: ACHN
SK-OV-3 = tested on: SK-OV-3
Malme-3M = tested on: Malme-3M
SR = tested on: SR
UACC-257 = tested on: UACC-257
RPMI-8226 = tested on: RPMI-8226
RXF 393 = tested on: RXF 393

Measured: GI50

COc1ccc(/C=C2\CCCCC2=O)cc1
inactive: UO-31 > 100 µM | COLO 205 > 100 µM | SK-MEL-5 > 100 µM | LOX IMVI > 100 µM | HCT-116 > 100 µM | CCRF-CEM > 100 µM | SF-295 > 100 µM | K562 > 100 µM | TK-10 > 100 µM | SNB-75 41.8 µM | ACHN > 100 µM | SK-OV-3 > 100 µM

[O-]c1c2cc(-[n+]3c(-c4ccccc4)cc(-c4ccccc4)cc3-c3ccccc3)cc1COCCOCCOCCOCCOC2
inactive: UO-31 85.3 µM | Malme-3M 34.2 µM | SR 26.2 µM | COLO 205 18.7 µM | LOX IMVI 43 µM | HCT-116 32.8 µM | CCRF-CEM 43.6 µM | SF-295 43.8 µM | UACC-257 24 µM | K562 34 µM | TK-10 57.5 µM | SNB-75 41.7 µM | ACHN > 100 µM | SK-OV-3 57.8 µM

O=c1[nH]c2cc([N+](=O)[O-])ccc2nc1/C(=N/Nc1ccccc1)C(O)c1ccccc1Cl (centres undefined)
inactive: UO-31 21.1 µM | RPMI-8226 52.4 µM | Malme-3M 85.3 µM | RXF 393 > 100 µM | COLO 205 39.7 µM | SK-MEL-5 33 µM | LOX IMVI > 100 µM | HCT-116 > 100 µM | CCRF-CEM 33.5 µM | SF-295 43.3 µM | UACC-257 > 100 µM | K562 42.5 µM | TK-10 > 100 µM | SNB-75 28.2 µM | ACHN 17.5 µM | SK-OV-3 > 100 µM

N#CC(C(=N/NC(N)=S)/C(=N\NC(N)=S)C(C#N)c1ccccc1)c1ccccc1 (centres undefined)
inactive: UO-31 > 10 µM | RPMI-8226 > 10 µM | Malme-3M > 10 µM | RXF 393 > 10 µM | COLO 205 > 10 µM | LOX IMVI > 10 µM | HCT-116 > 10 µM | CCRF-CEM > 10 µM | SF-295 > 10 µM | UACC-257 > 10 µM | K562 > 10 µM | TK-10 > 10 µM | SNB-75 > 10 µM | ACHN > 10 µM | SK-OV-3 > 10 µM

O=[N+]([O-])c1ccc(-c2ccc(/C=N/n3c(S)nnc3-c3ccc(Cl)cc3)o2)cc1
inactive: UO-31 > 24.2 µM | RPMI-8226 16.6 µM | Malme-3M 17.4 µM | SR 22.3 µM | COLO 205 32.1 µM | SK-MEL-5 20.5 µM | LOX IMVI 47.5 µM | HCT-116 17.7 µM | CCRF-CEM 37.2 µM | SF-295 24.1 µM | UACC-257 > 57.5 µM | K562 19.2 µM | TK-10 31 µM | SNB-75 33.3 µM | ACHN 26 µM | SK-OV-3 > 40.7 µM

O=[N+]([O-])c1cccc(C2=NN(c3ccccc3)C3c4ccccc4OCC23)c1 (centres undefined)
inactive: UO-31 6.71 µM | RPMI-8226 > 100 µM | Malme-3M > 100 µM | RXF 393 > 100 µM | COLO 205 > 100 µM | LOX IMVI > 100 µM | HCT-116 27.2 µM | CCRF-CEM 91 µM | SF-295 > 100 µM | UACC-257 > 100 µM | K562 75.3 µM | TK-10 > 100 µM | SNB-75 > 100 µM | ACHN > 100 µM | SK-OV-3 > 100 µM

Cc1ccc(Nc2nc(-c3ccc(-c4ccc([N+](=O)[O-])cc4)o3)cs2)cc1
inactive: UO-31 8.51 µM | RPMI-8226 12.6 µM | Malme-3M 65.2 µM | SR 11.4 µM | COLO 205 40 µM | LOX IMVI 33.8 µM | HCT-116 67.1 µM | SF-295 33.2 µM | UACC-257 21.5 µM | K562 14.2 µM | TK-10 25.4 µM | SNB-75 50.5 µM | ACHN 34 µM | SK-OV-3 > 100 µM

Cc1cc(N(CCC#N)CCC#N)ccc1/C=C/C(=O)Nc1cccc(Cl)c1
inactive: UO-31 27.6 µM | RPMI-8226 > 100 µM | Malme-3M > 100 µM | COLO 205 > 100 µM | SK-MEL-5 > 100 µM | LOX IMVI 52.2 µM | HCT-116 > 100 µM | CCRF-CEM 85.7 µM | SF-295 > 100 µM | UACC-257 > 100 µM | K562 32.3 µM | TK-10 > 100 µM | SNB-75 89.9 µM | ACHN 57.3 µM | SK-OV-3 > 100 µM

C/C(CC(=O)Nc1cc(C)ccc1C)=N/N=C(N)N
inactive: UO-31 > 100 µM | RPMI-8226 > 100 µM | Malme-3M > 100 µM | RXF 393 > 100 µM | COLO 205 > 100 µM | SK-MEL-5 > 100 µM | LOX IMVI > 100 µM | HCT-116 > 100 µM | CCRF-CEM > 100 µM | SF-295 > 100 µM | UACC-257 > 100 µM | K562 > 100 µM | TK-10 > 100 µM | SNB-75 > 100 µM | ACHN > 100 µM | SK-OV-3 > 100 µM

O=C(O)C#CCO
inactive: UO-31 > 100 µM | RPMI-8226 > 100 µM | Malme-3M > 100 µM | RXF 393 > 100 µM | COLO 205 > 100 µM | SK-MEL-5 > 100 µM | LOX IMVI > 100 µM | HCT-116 > 100 µM | CCRF-CEM > 100 µM | SF-295 > 100 µM | UACC-257 > 100 µM | K562 > 100 µM | TK-10 > 100 µM | SNB-75 > 100 µM | ACHN > 100 µM | SK-OV-3 > 100 µM

N=C(N)NS(=O)(=O)c1ccc(NC(=O)c2cccc3c(Nc4ccc(S(=O)(=O)N=C(N)N)cc4)c4ccc(Cl)cc4nc23)cc1
inactive: UO-31 50.8 µM | RPMI-8226 43.9 µM | Malme-3M 64.4 µM | RXF 393 > 100 µM | COLO 205 47.2 µM | SK-MEL-5 28.6 µM | LOX IMVI 37.2 µM | HCT-116 38.7 µM | CCRF-CEM 55 µM | SF-295 > 100 µM | UACC-257 77.6 µM | K562 41.3 µM | TK-10 > 100 µM | SNB-75 30.8 µM | ACHN 49.7 µM | SK-OV-3 32.1 µM

CC(Cn1c2c3ccccc3ccc2c2oc(=O)c3ccccc3c21)N(C)C (centres undefined)
inactive: UO-31 > 100 µM | RPMI-8226 > 100 µM | Malme-3M > 100 µM | SR > 100 µM | COLO 205 > 100 µM | LOX IMVI > 100 µM | HCT-116 > 100 µM | CCRF-CEM > 100 µM | SF-295 > 100 µM | UACC-257 > 100 µM | K562 > 100 µM | TK-10 > 100 µM | SNB-75 > 100 µM | ACHN > 100 µM

O=S(O)CCCSSCCCCSSCCCS(=O)O
inactive: UO-31 > 100 µM | Malme-3M > 100 µM | RXF 393 > 100 µM | COLO 205 > 100 µM | SK-MEL-5 > 100 µM | LOX IMVI > 100 µM | HCT-116 > 100 µM | CCRF-CEM > 100 µM | SF-295 > 100 µM | UACC-257 > 100 µM | K562 > 100 µM | TK-10 > 100 µM | SNB-75 66.8 µM | ACHN > 100 µM | SK-OV-3 > 100 µM
